Test results taken from patent publication US20230029385A1, “2-METHYL-AZA-QUINAZOLINES” (Bayer Aktiengesellschaft, priority 2019, published 2023).

How the values were obtained:
[1] = molecular target: T1, K-Ras-wt activation by SOS (Homo sapiens, UniProt Q07889); assay: K-Ras-wt activation by SOS; type: biochemical; settings: mean; K-Ras wild type; read-out: K-Ras-wt activation by SOS IC50 - [mol/l] (mean)
T1 sequence (Q07889 564-1049): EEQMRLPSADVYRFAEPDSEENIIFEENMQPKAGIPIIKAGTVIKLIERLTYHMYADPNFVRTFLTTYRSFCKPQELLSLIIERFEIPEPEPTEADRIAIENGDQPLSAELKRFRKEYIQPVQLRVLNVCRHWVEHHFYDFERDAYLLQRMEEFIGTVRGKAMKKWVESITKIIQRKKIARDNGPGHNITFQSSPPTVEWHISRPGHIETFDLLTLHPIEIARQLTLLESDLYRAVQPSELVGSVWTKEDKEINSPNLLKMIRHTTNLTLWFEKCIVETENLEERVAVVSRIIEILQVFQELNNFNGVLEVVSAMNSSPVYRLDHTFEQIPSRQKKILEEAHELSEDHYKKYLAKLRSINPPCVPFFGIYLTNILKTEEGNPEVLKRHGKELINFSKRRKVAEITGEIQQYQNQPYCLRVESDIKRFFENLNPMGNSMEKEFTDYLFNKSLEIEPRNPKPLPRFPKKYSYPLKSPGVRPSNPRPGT

[2] = molecular target: T2, human SOS1 (hSOS1) with human K-RasG12C (hK-RasG12C) (Homo sapiens, UniProt Q07889); assay: hK-RasG12C interaction assay with hSOS1 (Biochemical Assay 1, HTRF); type: binding; settings: mean, read-out: K-RasG12C- SOS interaction assay IC50 - [mol/l] (mean)
T2 construct: His10-hSOS1; made in house; host or cells: E. coli BL21 (DE3)
T2 sequence (Q07889 with tags, fused parts or gaps): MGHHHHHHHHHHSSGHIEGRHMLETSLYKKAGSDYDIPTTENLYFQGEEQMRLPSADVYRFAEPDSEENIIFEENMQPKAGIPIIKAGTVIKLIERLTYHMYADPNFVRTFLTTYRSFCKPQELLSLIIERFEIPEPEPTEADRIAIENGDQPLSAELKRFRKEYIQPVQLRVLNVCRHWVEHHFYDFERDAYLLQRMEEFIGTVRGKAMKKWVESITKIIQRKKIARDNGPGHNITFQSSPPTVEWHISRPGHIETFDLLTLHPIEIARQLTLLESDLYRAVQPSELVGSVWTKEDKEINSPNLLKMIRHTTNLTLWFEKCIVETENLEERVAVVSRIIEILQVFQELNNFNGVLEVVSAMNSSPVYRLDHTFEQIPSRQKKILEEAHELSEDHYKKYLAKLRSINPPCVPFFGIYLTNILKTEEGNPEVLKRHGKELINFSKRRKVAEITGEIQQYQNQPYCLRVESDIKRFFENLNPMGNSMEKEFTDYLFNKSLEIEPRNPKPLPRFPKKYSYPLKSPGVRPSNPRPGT
Method: Biochemical Assay 1: hK-RasG12C Interaction Assay with hSOS1
This assay quantifies the equilibrium interaction of human SOS1 (hSOS1) with human K-Ras^G12C (hK-RasG12C). Detection of the interaction is achieved by measuring homogenous time-resolved fluorescence resonance energy transfer (HTRF) from antiGST-Europium (FRET donor) bound to GST-K-RasG12C to anti-6His-XL665 bound to His-tagged hSOS1 (FRET-acceptor).
The assay buffer containes 5 mM HEPES pH 7.4 (Applichem), 150 mM NaCl (Sigma), 10 mM EDTA (Promega), 1 mM DTT (Thermofisher), 0.05% BSA Fraction V, pH 7.0, (ICN Biomedicals), 0.0025% (v/v) Igepal (Sigma) and 100 mM KF (FLUKA).
The expression and purification of N-terminal GST-tagged hK-RasG12C and N-terminal His-tagged hSOS1 is described below. Concentrations of protein batches used are optimized to be within the linear range of the HTRF signal. A Ras working solution is prepared in assay buffer containing typically 10 nM GST-hK-RasG12C and 2 nM antiGST-Eu(K) (Cisbio, France). A SOS1 working solution is prepared in assay buffer containing typically 20 nM His-hSOS1 and 10 nM anti-6His-XL665 (Cisbio, France). An inhibitor control solution is prepared in assay buffer containing 10 nM anti-6His-XL665 without hSOS1.
(§1) Fifty nl of a 100-fold concentrated solution of the test compound in DMSO are transferred into a black microtiter test plate (384 or 1536, Greiner Bio-One, Germany). For this, either a Hummingbird liquid handler (Digilab, Mass., USA) or an Echo acoustic system (Labcyte, Calif., USA) is used.
(§2) All steps of the assay are performed at 20° C. A volume of 2.5 μl of the Ras working solution is added to all wells of the test plate using a Multidrop dispenser (Thermo Labsystems). After 2 min preincubation, 2.5 μl of the SOS1 working solution are added to all wells except for those wells at the side of the test plate that are subsequently filled with 2.5 μl of the inhibitor control solution. After 60 min incubation the fluorescence is measured with a Pherastar (BMG, Germany) using the HTRF module (excitation 337 nm, emission 1: 620nm, emission 2: 665 nm).
(§3) The ratiometric data (emission 2 divided by emission 1) are normalized using the controls (DMSO=0% inhibition, inhibition control wells with inhibitor control solution=100% inhibition). Compounds are tested in duplicates at up to 11 concentrations (for example 20 μM, 5.7 μM, 1.6 μM, 0.47 μM, 0.13 μM, 38 nM, 11 nM, 3.1 nM, 0.89 nM, 0.25 nM and 0.073 nM). IC50 values are calculated by 4-Parameter fitting using a commercial software package (Genedata Screener, Switzerland).

[3] = molecular target: T3, hK-RasG12C activation by hSOS1 at high GTP concentration (Homo sapiens, UniProt Q07889); assay: hK-RasG12C activation assay by hSOS1 at high GTP concentration (Biochemical Assay 2, HTRF); settings: mean; assay 2, high concentration of 50 μM GTP; read-out: K-Ras activation by SOS high GTP (off-HTRF) IC50 - [mol/l] (mean)
T3 construct: His10-hSOS1; made in house; host or cells: E. coli BL21 (DE3)
T3 sequence (Q07889 with tags, fused parts or gaps): T2 sequence (Q07889 with tags, fused parts or gaps)
Text: Biochemical Assay 2: hK-RasG12C Activation Assay by hSOS1 at High GTP Concentration
This assay quantifies human SOS1-mediated nucleotide exchange of human K-Ras^G12C (hK-RasG12C) preloaded with a fluorescent […] and in presence of an excess of free GTP. Loaded hK-RasG12C generates a high HTRF-signal by energy transfer from antiGST-Terbium (FRET donor) bound to hK-Ras to the loaded fluorescent GDP analog (FRET-acceptor). hSOS1 activity exchanges the fluorescent GDP for non-fluorescent GTP and therefore leads to a reduction of the HTRF signal.
The fluorescent GDP-analog EDA-GDP-Dy647P1 (2′/3′-O-(2-Aminoethyl-carbamoyl)-guanosine-5′-diphosphate labelled with Dy647P1 (Dyomics GmbH, Germany)) is synthesized by Jena Biosciences GmbH (Germany) and supplied as a 1 mM aqueous solution.
The expression and purification of N-terminal GST-tagged human K-RasG12C and N-terminal His-tagged human SOS1 is described below. Concentrations of protein batches used are optimized to be within the linear range of the HTRF signal.
Preparation of GST-tagged hK-RasG12C loaded with fluorescent nucleotide is performed as follows: incubation of 11.5 μM hK-Ras^G12C with 5-fold excess GDP-Dy647 nucleotide (54 μM) in 500 μl NLS-buffer (RAS activation Kit Jena Bioscience, Kat. #PR-950) for 10 min at 37° C. Addition of 20 μl 1 M MgCl2 (Sigma) to final 40 mM and store on ice. Purification into buffer (10 mM HEPES pH 7.4 (Applichem), 150 mM NaCl (Sigma), 5 mM MgCl2 (Sigma)) by use of a PD-Minitrap desalting column (GE Healthcare). Concentration of 1 ml purified hK-Ras-GDP-Dy647 is approx. 4-5 μM.
(§4) The assay buffer containes 10 mM HEPES pH 7.4 (Applichem), 150 mM NaCl (Sigma), 5 mM MgCl2 (Sigma), 1 mM DTT (Thermofisher), 0.05% BSA Fraction V, pH 7.0, (ICN Biomedicals), 0.0025% (v/v) Igepal (Sigma).
A Ras working solution is prepared in assay buffer containing typically 80 nM loaded GST-hK-RasG12C-EDA-GDP-Dy647P1 and 2 nM antiGST-Tb (Cisbio, France). A hSOS1 working solution is prepared in assay buffer containing typically 8 nM His-hSOS1 and 100 μM GTP (Jena Bioscience, Germany). An inhibitor control solution is prepared in assay buffer containing the same concentration of hSOS1 without GTP.
Alternatively, the inhibitor control solution is prepared by supplementing the hSOS1 working solution with 20 μM of 6,7-dimethoxy-N-[(1R)-1-(1-naphthyl)ethyl]quinazolin-4-amine which is used to calibrate the assay.
as §1
as §2, with “hSOS1” for “SOS1”, “20” for “60”, “620 nm,” for “620nm,”
as §3

[4] = molecular target: T4, hK-RasG12C activation by hSOS1 (Homo sapiens, UniProt Q07889); assay: hK-RasG12C activation assay by hSOS1 (Biochemical Assay 3, HTRF); settings: mean; assay 3, loading with fluorescent GTP-analog; read-out: K-RasG12C activation by SOS IC50 - [mol/l] (mean)
T4 construct: His10-hSOS1; made in house; host or cells: E. coli BL21 (DE3)
T4 sequence (Q07889 with tags, fused parts or gaps): T2 sequence (Q07889 with tags, fused parts or gaps)
Text: Biochemical Assay 3: hK-RasG12C Activation Assay by hSOS1
K-Ras is a small GTPase that can bind GDP and GTP. The guanine nucleotide exchange factor SOS1 catalyzes the activation of K-Ras by promoting the exchange of GDP to GTP. SOS1 binds to K-Ras-GDP thereby opening the GDP-binding pocket to facilitate GDP release. Rebinding of excess nucleotide leads to dissociation of the K-Ras-SOS1 intermediate complex leaving K-Ras loaded with the nucleotide.
This assay quantifies human SOS1- (hSOS1-) mediated loading of human K-Ras^G12C-GDP (hK-RasG12C-GDP) with a fluorescent GTP-analog. Detection of successful loading is achieved by measuring homogenous time-resolved fluorescence resonance energy transfer (HTRF) from antiGST-Terbium (FRET donor) bound to GST-hK-RasG12C (see below) to the loaded fluorescent GTP analog (FRET-acceptor).
The fluorescent GTP-analog EDA-GTP-Dy647P1 (2′/3′-O-(2-Aminoethyl-carbamoyl)-guanosine-5′-triphosphate labelled with Dy647P1 (Dyomics GmbH, Germany)) is synthesized by Jena Biosciences GmbH (Germany) and supplied as a 1mM aqueous solution.
as §4
The expression and purification of N-terminal GST-tagged human K-RasG12C and N-terminal His-tagged hSOS1 is described below. Concentrations of protein batches used are optimized to be within the linear range of the HTRF signal. A hRas working solution is prepared in assay buffer containing typically 100 nM GST-hK-RasG12C and 2 nM antiGST-Tb (Cisbio, France). A hSOS1 working solution is prepared in assay buffer containing typically 20nM hSOS1 and 200 nM EDA-GTP-Dy647P1. An inhibitor control solution is prepared in assay buffer containing 200 nM EDA-GTP-Dy647P1 without hSOS1.
as §1
as §2, with “the hRas” for “the Ras”, “After 10” for “After 2”, “the hSOS1” for “the SOS1”, “After 30” for “After 60”, “1: 620 nm,” for “1: 620nm,”
as §3

[5] = combination of BAY-293 with ARS-853; cited from earlier work

## CC(=O)N[C@H]1CCN(c2cc3c(N[C@H](C)c4cccc(C(F)F)c4F)nc(C)nc3cn2)C1
[1]
  IC50: 101 nM
[2]
  IC50: 79.8 nM
[3]
  IC50: 197 nM
[4]
  IC50: 144 nM

## Cc1nc(N[C@H](C)c2cccc(C(F)F)c2F)c2cc(N3CCCC3)ncc2n1
[1]
  IC50: 172 nM
[2]
  IC50: 185 nM
[3]
  IC50: 320 nM
[4]
  IC50: 251 nM

## CC(=O)N[C@@H]1CCN(c2cc3c(N[C@H](C)c4cccc(C(F)F)c4F)nc(C)nc3cn2)C1
[1]
  IC50: 92.3 nM
[2]
  IC50: 77.3 nM
[3]
  IC50: 187 nM
[4]
  IC50: 110 nM

## Cc1nc(N[C@H](C)c2cccc(C(F)F)c2F)c2cc(F)ncc2n1
[1]
  IC50: > 20000 nM
[2]
  IC50: > 20000 nM
[3]
  IC50: > 20000 nM
[4]
  IC50: > 20000 nM

## CCOc1cc2c(N[C@H](C)c3cccc(C(F)F)c3F)nc(C)nc2cn1
[1]
  IC50: 308 nM
[2]
  IC50: 134 nM
[3]
  IC50: 851 nM
[4]
  IC50: 357 nM

## Cc1nc(N[C@H](C)c2cccc(C(F)F)c2F)c2cc(F)nc(C)c2n1
[1]
  IC50: > 20000 nM
[2]
  IC50: > 20000 nM
[4]
  IC50: > 20000 nM

## CC(=O)N[C@@H]1CCN(c2cc3c(N[C@H](C)c4cccc(C(F)F)c4F)nc(C)nc3c(C)n2)C1
[1]
  IC50: 83.2 nM
[2]
  IC50: 56.8 nM
[3]
  IC50: 255 nM
[4]
  IC50: 209 nM

## CNCc1ccccc1-c1csc(C(C)Nc2nc(C)nc3cc(OC)c(OC)cc23)c1 (stereo not shown) [BAY-293]
[5]
  anti-proliferative activity in vitro of the combination: Synergistic anti-proliferative activity
